US20250257134A1, “THERAPEUTIC AND DIAGNOSTIC METHODS FOR BLADDER CANCER” (Genentech, Inc., priority 2022, published 2025)

Columns and labels:
[1] = system: patients with untreated locally advanced or metastatic urothelial carcinoma; assay: Phase III IMvigor130 study: overall survival, atezolizumab monotherapy (Arm B) vs placebo + platinum-based chemotherapy (Arm C); type: in vivo, human; details: 1L mUC, May 31, 2019 cutoff
Source text: This Example describes the IMvigor130 study, which is a Phase III, multicenter, randomized, placebo-controlled, partially blind study designed to evaluate the efficacy of atezolizumab given as monotherapy or in combination with platinum-based chemotherapy versus placebo in combination with platinum-based chemotherapy in patients with locally advanced or metastatic urothelial carcinoma who have not received prior systemic therapy.
The primary efficacy objective for this study is to evaluate the efficacy of atezolizumab plus platinum-based chemotherapy compared with placebo plus platinum-based chemotherapy on the basis of the following endpoints: • Co-primary endpoints of progression-free survival (PFS) and overall survival (OS) • PFS is defined as the time from randomization to the first documented disease progression as determined by the investigator with use of RECIST v1.1, or death due to any cause, whichever occurs first. • OS is defined as the time from randomization to death due to any cause. […]
Randomization was stratified by the following factors: • PD-L1 status (IC0 (<1%) vs. IC1 (≥1% and <5%) vs. IC2/3 (≥5%)). • Bajorin model risk factor score/liver metastasis (0 vs. 1 vs. 2 or patients with liver metastasis). • Investigator-determined chemotherapy (gemcitabine and carboplatin vs. gemcitabine and cisplatin). […]

[2] = system: patients with metastatic urothelial carcinoma (mUC); assay: Post hoc analysis of IMvigor130 biomarker-evaluable population: PD-L1 IHC assays (SP142, 22C3) and OS; type: in vivo, human
Source text: Clinically relevant biomarkers are needed to predict outcomes with immunotherapy in metastatic urothelial carcinoma (mUC). Different PD-L1 assays use various methods (e.g., scoring tumor and/or immune cells) to evaluate anti-PD-L1/PD-1 outcomes. […] Thus, it was hypothesized that the SP142 and 22C3 assays may be differentially associated with OS in IMvigor130 patients, which may be related to PD-L1 localization on specific immune cells such as dendritic cells (DCs). This Example describes a post hoc analysis that studied associations between two PD-L1 IHC assays (i.e., VENTANA SP142 and Dako 22C3) and OS in the biomarker-evaluable population of the IMvigor130 study.
The biomarker-evaluable population in this analysis consisted of patients with archival tumors in Arms B and C (Jun. 14, 2020 cutoff) (Galsky et al. Cancer Res. 81 (13_Supplement): CT042, 2021). Formalin-fixed paraffin-embedded (FFPE) tumor specimens from eligible IMvigor130 study patients were prospectively tested for PD-L1 IHC expression by a central laboratory prior to randomization (see, Example 1 for additional information). The IHC scores had three categories (IC0, IC1, IC2/3). The study enrolled all eligible patients whose tissue is evaluable for expression testing, regardless of PD-L1 expression status.
PD-L1 expression was evaluated by IHC (CellCarta) using the SP142 (Ventana) and 22C3 (Dako) assays in 322 patients treated with atezolizumab monotherapy (Arm B) and 305 patients treated with placebo+platinum-based chemotherapy (Arm C). Samples were also stained for IC subtypes. Assay cutoffs for the SP142 assay were IC ≥5% (IC2/3) and <5% (IC0/1). For the 22C3 assay, cutoffs were CPS ≥10 and <10.
A subset of tumor samples were also stained by IHC for the dendritic cell marker DC-LAMP (Clone 1010E1.01, Novus Biologicals). In silico deconvolution by xCell (Aran et al. Genome Biol. 18 (1): 220, 2017) was performed. Statistical analysis was performed to compare OS between subgroups using the stratified log-rank test.

[3] = patients receiving atezolizumab monotherapy, biomarker-evaluable population, Jun. 14, 2020 cutoff
[4] = untreated locally advanced or metastatic UC

Q: “atezolizumab: Fc-engineered, humanized, non-glycosylated IgG1 kappa immunoglobulin that binds PD-L1; heavy chain SEQ ID NO: 1, light chain SEQ ID NO: 2” was tested. Which “overall survival (OS) HR, atezolizumab monotherapy (Arm B) versus placebo+platinum-based chemotherapy (Arm C)” value ([1]; PD-L1 IC2/3 by SP142 IHC assay) did it give?
A: Its value is 0.68.

Q: And the “overall survival (OS) HR, atezolizumab monotherapy (Arm B) versus placebo+platinum-based chemotherapy (Arm C)” value ([1]; PD-L1 IC2/3 cisplatin ineligible)?
A: Its value is 0.53.

Q: What about the “OS HR by 22C3 CPS scoring (CPS ≥10 versus CPS <10)” value [2, 3] of the same substance?
A: The value was 0.83 (0.63, 1.10).

Q: What about the “OS HR by SP142 scoring (IC2/3 versus IC0/1)” value [2, 3] of the same substance?
A: Its value is 0.55 (0.39, 0.77).

Q: And the “OS in SP142 IC2/3 versus IC0/1 tumours” value ([2]; patients with mUC)?
A: Its value is “longer OS”.

Q: And the “OS by combined tumor status SP142 IC0/1 + 22C3 CPS ≥10” value [2, 4]?
A: Its value is “shorter OS”.

Q: And the “OS by combined tumor status SP142 IC2/3 + 22C3 CPS ≥10 (double positive)” value [2, 4]?
A: Its value is “longer OS”.
